Laboratory results: ChEMBL document CHEMBL1201862, “PubChem BioAssay data set” (2004)
Activity calls are given as the source filed them.

How the values were obtained:
[1] = molecular target: G-protein coupled receptor 35 (Homo sapiens, UniProt Q9HC97); test: inhibition of zaprinast-stimulated GPR35 beta-arrestin translocation – imaging, U2OS, beta-arrestin-GFP, zaprinast agonist, primary screen (AID 2058); format: functional;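 further: antagonist potency meaning inhibition of agonist-induced arrestin redistribution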
[2] = molecular target: T1, Phosphomannomutase 2 (Homo sapiens, UniProt O15305); test: Counter screen SAR assay for PMM2 inhibitors via a fluorescence intensity assay. [Related pubchem assays (depositor defined):AID1545, AID1574]
T1 sequence (O15305 whole entry): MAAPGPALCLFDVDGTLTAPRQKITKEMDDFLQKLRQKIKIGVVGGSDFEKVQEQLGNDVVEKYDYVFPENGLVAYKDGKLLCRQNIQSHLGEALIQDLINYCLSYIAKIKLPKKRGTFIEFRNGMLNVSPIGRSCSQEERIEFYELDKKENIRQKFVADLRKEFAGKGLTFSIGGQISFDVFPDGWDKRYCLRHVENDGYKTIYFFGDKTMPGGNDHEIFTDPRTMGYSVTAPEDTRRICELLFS

[3] = molecular target: T2, Mannose-6-phosphate isomerase (Homo sapiens, UniProt P34949); test: phosphomannose isomerase inhibition – biochemical, fluorescence intensity, confirmation (AID 1535)
T2 sequence (P34949 whole entry): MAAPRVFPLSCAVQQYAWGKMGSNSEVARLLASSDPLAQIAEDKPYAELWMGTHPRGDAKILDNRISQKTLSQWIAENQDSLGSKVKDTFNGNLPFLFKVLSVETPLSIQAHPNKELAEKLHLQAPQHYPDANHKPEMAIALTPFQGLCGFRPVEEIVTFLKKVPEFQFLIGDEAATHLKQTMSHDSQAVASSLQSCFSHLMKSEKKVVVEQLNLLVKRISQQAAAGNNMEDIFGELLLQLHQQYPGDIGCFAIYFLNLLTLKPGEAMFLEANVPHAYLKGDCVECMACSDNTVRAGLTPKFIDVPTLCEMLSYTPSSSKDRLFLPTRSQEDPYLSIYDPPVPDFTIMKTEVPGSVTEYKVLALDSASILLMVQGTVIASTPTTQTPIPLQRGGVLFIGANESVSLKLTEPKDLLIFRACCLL

[4] = molecular target: T3, Alkaline phosphatase, tissue-nonspecific isozyme (Homo sapiens, UniProt P05186); test: potency against alkaline phosphatase TNAP – biochemical, luminescent, dose response, SAR follow-up (AID 1056)
T3 sequence (P05186 whole entry): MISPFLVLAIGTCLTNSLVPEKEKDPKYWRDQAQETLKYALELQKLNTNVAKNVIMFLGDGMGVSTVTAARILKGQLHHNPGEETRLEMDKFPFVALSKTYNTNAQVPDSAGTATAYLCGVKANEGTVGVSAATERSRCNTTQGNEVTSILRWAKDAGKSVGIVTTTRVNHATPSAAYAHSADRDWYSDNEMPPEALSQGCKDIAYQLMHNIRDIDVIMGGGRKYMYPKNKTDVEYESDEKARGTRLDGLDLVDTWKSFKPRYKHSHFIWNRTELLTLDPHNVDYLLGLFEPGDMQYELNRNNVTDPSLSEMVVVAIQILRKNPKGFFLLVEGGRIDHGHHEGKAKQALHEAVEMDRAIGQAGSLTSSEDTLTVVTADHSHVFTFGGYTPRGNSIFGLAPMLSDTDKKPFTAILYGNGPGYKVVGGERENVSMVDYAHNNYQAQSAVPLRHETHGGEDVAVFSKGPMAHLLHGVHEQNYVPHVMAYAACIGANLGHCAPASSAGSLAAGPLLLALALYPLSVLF

[5] = molecular target: Phosphoethanolamine/phosphocholine phosphatase (Homo sapiens, UniProt Q8TCT1); test: SAR assay for compounds that inhibit PHOSPHO1. [Related pubchem assays (depositor defined):AID1545, AID1565, AID1574]
[6] = molecular target: T2, Mannose-6-phosphate isomerase; test: Confirmation of compounds inhibiting phosphomannose isomerase (PMI) via a fluorescence intensity assay using a high concentration of mannose 6-phosphate. [Related pubchem assays (depositor defined):AID1209, AID1220, AID1545, AID1553, AID1620]
[7] = molecular target: T4, Protein phosphatase methylesterase 1 (Homo sapiens, UniProt Q9Y570); test: endogenous PME-1 and serine hydrolase inhibition – cell lysate, mouse brain cytosol, FP-rhodamine, gel ABPP, selectivity assay for PME-1 inhibitor project, dose response, panel member PME-1 Assay Panel member description: Inhibition of endogenously expressed PME-1 (AID 2366)
[8] = molecular target: T4, Protein phosphatase methylesterase 1; test: Late stage results from the probe development effort to identify inhibitors of the protein methylesterase PME-1: Gel-based Activity-Based Protein Profiling (ABPP) IC50: Purified enzyme.; format: functional
[9] = molecular target: DNA dC->dU-editing enzyme APOBEC-3G (Homo sapiens, UniProt Q9HC16); test: Dose Response confirmation of small molecule APOBEC3G DNA Deaminase Inhibitors via a fluorescence-based single-stranded DNA deaminase assay. [Related pubchem assays (depositor defined):AID493012, AID493028]; format: functional
[10] = molecular target: DNA dC->dU-editing enzyme APOBEC-3A (Homo sapiens, UniProt P31941); test: A3A deaminase inhibition for selectivity – biochemical, dose response (AID 504722); format: functional
[11] = NIH-3T3 fibroblast cytotoxicity, dose response, cytotoxicity control, cell-based, fluorescence, Alamar Blue, secondary assay (AID 2327); format: functional;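 further: NIH-3T3 mouse fibroblasts cultured with fluconazole at 8 µg/mL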
[12] = fluconazole-exposed Candida albicans growth modulators – fluorescence, retest, confirmation (AID 2467); format: functional, cell-based
[13] = alpha-synuclein stem-loop luciferase translation blockers – H4 neuroglioma cells, luminescence, confirmation (AID 1988); format: functional, cell-based
[14] = luciferase reporter signal suppression in cells – H4 neuroglioma cells, luminescence, dose response (AID 1990); format: functional, cell-based
[15] = HEK-293T viability loss after treatment – luminescence, T-cell screen hits, cytotoxicity control for TCR NF-kB inhibitor project, dose response (AID 489026); format: functional, cell-based;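 further: cells exposed to compound about 14 hours before the viability readout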
[16] = Luminescence Cell-Based Dose Response HTS to Identify Inhibitors of 5'UTR Stem-Loop Driven Prion Protein mRNA Translation in H4 Neuroglioblastoma Cells. [Related pubchem assays: 1827 (Project Summary), 1813 (Primary HTS)]; format: functional
[17] = molecular target: NACHT, LRR and PYD domains-containing protein 3 (Homo sapiens, UniProt Q96P20); test: NALP3 inhibitors in yeast, dose response, luminescent (AID 488799); format: functional
[18] = DRD fibroblast viability loss – cell-based, non-viral oncogenic, luminescence, dose response (AID 1934); format: functional; conditions: Homo sapiens
[19] = system: INS1; test: INS-1E survival protection against cytokine death – cell-based, luminescence, retest, dose response (AID 449756); format: functional; conditions: Rattus norvegicus, INS1;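 further: cell death triggered by IL-1 beta plus TNF-alpha plus IFN-gamma mixture; protective hits raise ATP signal compared with cytokine alone wells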
[20] = system: BJ; test: BJ-TERT fibroblast viability loss – cell-based, RAS-independent, luminescence, dose response (AID 1933); format: functional; conditions: Homo sapiens
[21] = system: BJ; test: BJ-TERT-LT-ST fibroblast viability loss – cell-based, RAS-independent, luminescence, dose response (AID 1935); format: functional; conditions: Homo sapiens;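 further: BJ fibroblasts immortalized with TERT plus LT and ST oncogenes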
[22] = molecular target: Mitochondrial peptide methionine sulfoxide reductase (Bos taurus, UniProt P54149); test: Absorbance-based biochemical high throughput dose response assay for activators of Methionine sulfoxide reductase A (MsrA).; format: functional
[23] = microbe, parasite or virus in culture; format: functional; conditions: Mycobacterium tuberculosis
[24] = system: BJ; test: cells; format: functional, cell-based; conditions: Homo sapiens
[25] = system: J774.A1; test: Confirmation of image-based Screening Assay for Inhibitors of Phagocytosis. [Related pubchem assays (depositor defined):AID1029, AID1643]; format: functional, cell-based; conditions: Mus musculus

T4 sequence (Q9Y570 whole entry): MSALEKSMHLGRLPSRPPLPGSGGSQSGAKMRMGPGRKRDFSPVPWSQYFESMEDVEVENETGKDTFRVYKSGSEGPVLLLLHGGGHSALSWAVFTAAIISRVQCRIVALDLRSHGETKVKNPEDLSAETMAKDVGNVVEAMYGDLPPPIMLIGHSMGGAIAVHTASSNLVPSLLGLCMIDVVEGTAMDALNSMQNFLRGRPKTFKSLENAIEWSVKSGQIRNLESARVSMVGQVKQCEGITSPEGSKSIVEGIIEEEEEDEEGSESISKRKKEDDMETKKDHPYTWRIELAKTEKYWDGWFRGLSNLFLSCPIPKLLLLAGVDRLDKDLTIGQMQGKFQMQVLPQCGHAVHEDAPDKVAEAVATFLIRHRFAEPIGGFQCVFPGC
G-protein coupled receptor 35, sequence (Q9HC97 whole entry): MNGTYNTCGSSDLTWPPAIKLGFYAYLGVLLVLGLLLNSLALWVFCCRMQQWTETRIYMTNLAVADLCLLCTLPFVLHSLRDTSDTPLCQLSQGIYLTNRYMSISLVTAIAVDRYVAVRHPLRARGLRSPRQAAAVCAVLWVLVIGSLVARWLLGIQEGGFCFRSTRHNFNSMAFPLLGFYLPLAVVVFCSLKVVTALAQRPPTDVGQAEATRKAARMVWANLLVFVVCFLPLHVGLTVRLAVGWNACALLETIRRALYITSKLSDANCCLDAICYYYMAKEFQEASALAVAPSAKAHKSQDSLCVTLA
DNA dC->dU-editing enzyme APOBEC-3A, sequence (P31941 whole entry): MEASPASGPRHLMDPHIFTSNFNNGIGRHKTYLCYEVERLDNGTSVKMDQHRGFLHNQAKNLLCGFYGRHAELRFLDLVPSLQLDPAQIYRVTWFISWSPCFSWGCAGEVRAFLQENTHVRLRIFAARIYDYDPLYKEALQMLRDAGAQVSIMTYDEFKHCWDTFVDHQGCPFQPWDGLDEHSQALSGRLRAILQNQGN
Phosphoethanolamine/phosphocholine phosphatase, sequence (Q8TCT1 whole entry): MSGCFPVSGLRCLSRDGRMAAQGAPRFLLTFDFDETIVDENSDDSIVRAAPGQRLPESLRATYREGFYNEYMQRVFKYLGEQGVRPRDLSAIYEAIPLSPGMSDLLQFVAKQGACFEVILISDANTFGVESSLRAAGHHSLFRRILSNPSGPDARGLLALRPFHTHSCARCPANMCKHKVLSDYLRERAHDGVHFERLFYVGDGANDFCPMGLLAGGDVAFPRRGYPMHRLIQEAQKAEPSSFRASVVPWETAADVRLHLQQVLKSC
Mitochondrial peptide methionine sulfoxide reductase, sequence (P54149 whole entry): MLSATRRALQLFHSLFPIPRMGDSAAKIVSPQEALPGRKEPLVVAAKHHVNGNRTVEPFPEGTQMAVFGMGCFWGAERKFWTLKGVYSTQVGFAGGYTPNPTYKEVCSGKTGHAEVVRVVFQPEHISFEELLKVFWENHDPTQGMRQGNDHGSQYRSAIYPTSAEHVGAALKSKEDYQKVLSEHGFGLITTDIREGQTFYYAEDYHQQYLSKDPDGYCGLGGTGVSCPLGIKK
NACHT, LRR and PYD domains-containing protein 3, sequence (Q96P20 whole entry, the tested form may be a part): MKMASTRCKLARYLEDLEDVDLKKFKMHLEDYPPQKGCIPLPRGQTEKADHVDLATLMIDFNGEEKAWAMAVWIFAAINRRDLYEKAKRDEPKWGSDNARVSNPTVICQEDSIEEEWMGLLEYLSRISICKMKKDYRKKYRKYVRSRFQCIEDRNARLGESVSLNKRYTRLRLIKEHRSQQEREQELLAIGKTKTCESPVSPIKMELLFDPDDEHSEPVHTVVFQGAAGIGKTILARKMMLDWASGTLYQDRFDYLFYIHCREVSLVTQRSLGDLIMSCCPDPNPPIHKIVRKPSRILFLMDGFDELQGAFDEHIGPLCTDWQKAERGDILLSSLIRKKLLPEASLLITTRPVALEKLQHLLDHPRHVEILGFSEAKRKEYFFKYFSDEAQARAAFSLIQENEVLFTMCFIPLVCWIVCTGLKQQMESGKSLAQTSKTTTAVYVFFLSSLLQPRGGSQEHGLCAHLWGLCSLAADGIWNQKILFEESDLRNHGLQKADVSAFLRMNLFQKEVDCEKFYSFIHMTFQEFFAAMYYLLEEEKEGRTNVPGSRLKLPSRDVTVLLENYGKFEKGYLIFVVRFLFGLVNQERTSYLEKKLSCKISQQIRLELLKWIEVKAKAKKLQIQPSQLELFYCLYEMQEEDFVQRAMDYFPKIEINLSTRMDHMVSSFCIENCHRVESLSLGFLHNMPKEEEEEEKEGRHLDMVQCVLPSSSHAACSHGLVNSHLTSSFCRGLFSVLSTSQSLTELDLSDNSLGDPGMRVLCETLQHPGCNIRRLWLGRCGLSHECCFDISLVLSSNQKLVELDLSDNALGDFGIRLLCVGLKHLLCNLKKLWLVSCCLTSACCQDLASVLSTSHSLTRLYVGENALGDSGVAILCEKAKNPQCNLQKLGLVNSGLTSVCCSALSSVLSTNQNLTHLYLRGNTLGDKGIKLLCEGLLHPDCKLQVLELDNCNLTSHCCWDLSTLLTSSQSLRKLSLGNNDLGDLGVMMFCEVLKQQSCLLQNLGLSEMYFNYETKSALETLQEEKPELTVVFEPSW
DNA dC->dU-editing enzyme APOBEC-3G, sequence (Q9HC16 whole entry): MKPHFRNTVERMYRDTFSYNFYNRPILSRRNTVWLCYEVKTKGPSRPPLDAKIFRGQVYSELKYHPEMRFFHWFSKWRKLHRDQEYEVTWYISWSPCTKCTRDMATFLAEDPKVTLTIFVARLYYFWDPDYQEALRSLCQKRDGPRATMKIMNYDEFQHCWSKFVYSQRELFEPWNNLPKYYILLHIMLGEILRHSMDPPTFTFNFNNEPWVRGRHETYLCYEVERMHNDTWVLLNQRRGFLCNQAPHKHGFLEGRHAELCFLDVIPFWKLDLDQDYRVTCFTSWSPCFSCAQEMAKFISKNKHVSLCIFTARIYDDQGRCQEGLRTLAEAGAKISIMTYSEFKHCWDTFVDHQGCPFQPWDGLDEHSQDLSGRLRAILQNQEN

For `COc1ccc(/C=C\C(=O)NCC(=O)N/N=C/c2ccc(O)cc2O)cc1`, the IC50 [1] was 1.16 µM (active).
For `Cc1ccc(C)c(-n2sc3ccccc3c2=O)c1`, the IC50 [2] was 17.9 µM (active), the IC50 [3] was 1.67 µM (active) and the IC50 [4] was > 100 µM (inactive). For the same molecule, the IC50 [5] was 5.04 µM (inactive) and the IC50 [6] was 5.51 µM (active).
With `CS(=O)(=O)/C(C#N)=C/c1ccc([N+](=O)[O-])cc1` the IC50 [7] was > 20 µM (inactive) and the IC50 [8] was > 20 µM (not active).
In the case of `FC(F)Oc1ccc(/C=N/n2c(S)nnc2Cc2ccc(Br)cc2)cc1`, the IC50 [9] is reported as 6.93 µM (active) and the IC50 [10] is reported as > 100 µM (inactive).
In the case of `CCN(CC)c1ccc2nc3ccccc3[n+](CC)c2c1`, the EC50 [11] is reported as 96.1 µM (active), the EC50 [12] is reported as 0.686 µM (active) and the EC50 [13] is reported as 9.49 µM (active). The EC50 [14] was 11.2 µM (active), the IC50 [15] was 48.8 µM (inactive) and the EC50 [16] was 25.9 µM (active). For the same molecule, the IC50 [17] was 14.3 µM (active), the EC50 [18] was 15.2 µM (active) and the AC50 [19] was 0.602 µM (active). For the same molecule, the EC50 [20] was 16.9 µM (active), the EC50 [21] was > 150 µM (inconclusive) and the EC50 [22] was 19.2 µM (inactive). The CC50 [23] was > 40 µM (active) and the EC50 [24] was 23.6 µM (active).
With `CCN(CC)c1ccc(NC(=O)c2cc(OC)cc(OC)c2)c(C)c1` the IC50 [25] was 0.13 µM (active) and the IC50 [15] was > 80 µM (inactive).
